# Test results published in article PMC8173610 (Biochemistry, 2021).
# Target: microtubule-associated protein tau (Homo sapiens, UniProt P10636)
# Type: biochemical
# Sequence of microtubule-associated protein tau (P10636 1-441 isoform P10636-8): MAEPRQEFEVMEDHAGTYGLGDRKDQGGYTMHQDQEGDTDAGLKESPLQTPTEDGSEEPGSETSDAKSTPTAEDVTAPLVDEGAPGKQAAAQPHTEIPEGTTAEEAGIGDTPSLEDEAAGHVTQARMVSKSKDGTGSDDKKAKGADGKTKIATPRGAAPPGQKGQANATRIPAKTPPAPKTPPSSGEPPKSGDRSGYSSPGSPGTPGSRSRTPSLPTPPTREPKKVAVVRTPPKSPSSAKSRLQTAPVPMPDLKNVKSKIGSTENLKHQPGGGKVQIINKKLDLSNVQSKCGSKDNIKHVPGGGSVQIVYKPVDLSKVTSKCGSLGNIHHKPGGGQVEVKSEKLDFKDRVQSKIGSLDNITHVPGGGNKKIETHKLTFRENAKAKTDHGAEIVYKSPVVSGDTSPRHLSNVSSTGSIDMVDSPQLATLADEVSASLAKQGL
smiles,measurement,value
"CCCCCCCCCc1cc2cc(O)c(C)c(O)c2cn1 [ANTC-15, 7-methyl-3-nonylisoquinoline-6,8-diol]",IC50,35 µM
